Measured values reported in patent publication US6150385A, “1,3,4-thiadiazoles useful for the treatment of CMV infections” (Pharmacia & Upjohn Company, priority 1999, dated 2000).

Target: T1, HCMV polymerase (Human cytomegalovirus, UniProt P08546)
T1 construct: made in house; host or cells: SF-9 insect cells infected with recombinant baculovirus
Experiment: HCMV polymerase assay (scintillation proximity assay)
Assay type: biochemical
Conditions: percentage of inhibition at 25 μM concentration in CMV polymerase assay
Method in brief: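 Baculovirus/SF-9-expressed HCMV polymerase in 5.4 mM HEPES pH 7.5, 11.7 mM KCl, 4.5 mM MgCl2, 0.36 mg/ml BSA, 90 nM 3H-dTTP, with or without 2 mM CHAPS. Started with 6 nM biotinylated poly(dA)-oligo(dT), 30 min at 25 or 37 °C, EDTA-stopped, read by streptavidin-SPA counting; % inhibition at 25 μM.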

T1 sequence (P08546 whole entry): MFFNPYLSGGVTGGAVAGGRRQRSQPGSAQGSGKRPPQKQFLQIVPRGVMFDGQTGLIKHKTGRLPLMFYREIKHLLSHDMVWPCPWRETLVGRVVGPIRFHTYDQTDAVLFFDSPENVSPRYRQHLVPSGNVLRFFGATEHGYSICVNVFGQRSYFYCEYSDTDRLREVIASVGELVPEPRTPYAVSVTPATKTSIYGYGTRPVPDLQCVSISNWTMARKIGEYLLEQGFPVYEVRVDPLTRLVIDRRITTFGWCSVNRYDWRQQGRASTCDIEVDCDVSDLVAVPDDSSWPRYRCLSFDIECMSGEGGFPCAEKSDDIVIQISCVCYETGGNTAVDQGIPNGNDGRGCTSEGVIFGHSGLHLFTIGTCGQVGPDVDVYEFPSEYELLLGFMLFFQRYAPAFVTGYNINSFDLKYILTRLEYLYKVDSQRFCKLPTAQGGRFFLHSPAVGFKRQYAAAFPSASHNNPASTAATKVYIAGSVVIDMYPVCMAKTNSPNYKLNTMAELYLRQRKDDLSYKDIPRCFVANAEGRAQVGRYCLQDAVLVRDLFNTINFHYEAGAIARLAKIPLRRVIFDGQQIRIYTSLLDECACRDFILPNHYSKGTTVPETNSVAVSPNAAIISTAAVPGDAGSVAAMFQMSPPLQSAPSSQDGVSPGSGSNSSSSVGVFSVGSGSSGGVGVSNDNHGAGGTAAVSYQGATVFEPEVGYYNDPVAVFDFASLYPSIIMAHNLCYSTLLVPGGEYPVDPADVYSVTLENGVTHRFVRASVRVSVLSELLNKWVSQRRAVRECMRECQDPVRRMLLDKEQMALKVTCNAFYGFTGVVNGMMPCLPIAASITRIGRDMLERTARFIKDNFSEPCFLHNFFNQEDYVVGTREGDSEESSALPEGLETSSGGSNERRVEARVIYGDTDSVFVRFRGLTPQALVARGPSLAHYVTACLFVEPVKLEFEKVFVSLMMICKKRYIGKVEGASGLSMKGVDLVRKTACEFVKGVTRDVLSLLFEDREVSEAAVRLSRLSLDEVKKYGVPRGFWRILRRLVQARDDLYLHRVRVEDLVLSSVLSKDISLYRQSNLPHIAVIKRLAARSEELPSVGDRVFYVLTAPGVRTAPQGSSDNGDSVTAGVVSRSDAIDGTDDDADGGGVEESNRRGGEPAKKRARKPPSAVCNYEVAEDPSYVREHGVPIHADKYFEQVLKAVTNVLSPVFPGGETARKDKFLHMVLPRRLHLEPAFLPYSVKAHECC

inhibition at 25 µM	SMILES	% Inhib
74%	O=C(Nc1nnc(NCCCNC2CCCCC2)s1)c1cc2ccccc2s1 [compound 62, N-(5-{[3-(cyclohexylamino)propyl]amino}-1,3,4-thiadiazol-2-yl)-1-benzothiophene-2-carboxamide]	
47.8%	O=C(Nc1nnc(NCCCN2CCCC2=O)s1)c1ccc2c(c1)C(=O)OC2=O [compound 184, 1,3-dioxo-N-(5-{[3-(2-oxo-1-pyrrolidinyl)propyl]amino}-1,3,4-thiadiazol-2-yl)-1,3-dihydro-2-benzofuran-5-carboxamide]	
34.6%	COc1ccccc1C(=O)Nc1nnc(NCC2CCCCC2)s1 [compound 304, N-{5-[(cyclohexylmethyl)amino]-1,3,4-thiadiazol-2-yl}-2-methoxybenzamide]	
67%	CC(C)c1cc(C(C)C)c(C(=O)Nc2nnc(NCCCn3ccnc3)s2)c(C(C)C)c1 [compound 87, N-(5-{[3-(1H-imidazol-1-yl)propyl]amino}-1,3,4-thiadiazol-2-yl)-2,4,6-triisopropylbenzamide]	
67.3%	O=C(Nc1nnc(NC2CCN(Cc3ccccc3)CC2)s1)c1ccc2c(c1)C(=O)OC2=O [compound 85, N-{5-[(1-benzyl-4-piperidinyl)amino]-1,3,4-thiadiazol-2-yl}-1,3-dioxo-1,3-dihydro-2-benzofuran-5-carboxamide]	
	CCCCCCCCCCCNc1nnc(NC(=O)c2ccc(S(=O)(=O)F)cc2)s1 [compound 49, 4-({[5-(undecylamino)-1,3,4-thiadiazol-2-yl]amino}carbonyl)benzenesulfonyl fluoride]	80.3%
48.5%	CCCCCCCC/C=C/CCCCCCCC(=O)Nc1nnc(NCCNc2ccccc2)s1 [compound 179, (E)-N-{5-[(2-anilinoethyl)amino]-1,3,4-thiadiazol-2-yl}-9-octadecenamide]	
27.9%	O=C(Nc1nnc(NCCC(c2ccccc2)c2ccccc2)s1)c1ccc(C(F)(F)F)cc1 [compound 376, N-{5-[(3,3-diphenylpropyl)amino]-1,3,4-thiadiazol-2-yl}-4-(trifluoromethyl)benzamide]	
26.9%	O=C(Nc1nnc(NCCC(c2ccccc2)c2ccccc2)s1)c1ccc(Br)cc1 [compound 386, 4-bromo-N-{5-[(3,3-diphenylpropyl)amino]-1,3,4-thiadiazol-2-yl}benzamide]	
38.2%	O=C(Nc1nnc(NCCCn2ccnc2)s1)c1ccc(Br)cc1 [compound 272, 4-bromo-N-(5-{[3-(1H-imidazol-1-yl)propyl]amino}-1,3,4-thiadiazol-2-yl)benzamide]	
57%	O=C(/C=C/c1ccccc1)Nc1nnc(NCCCn2ccnc2)s1 [compound 133, (E)-N-(5-{[3-(1H-imidazol-1-yl)propyl]amino}-1,3,4-thiadiazol-2-yl)-3-phenyl-2-propenamide]	
36.2%	O=C(Nc1nnc(NC2CC2)s1)c1cc2ccccc2s1 [compound 287, N-[5-(cyclopropylamino)-1,3,4-thiadiazol-2-yl]-1-benzothiophene-2-carboxamide]	
89.7%	CC(C)c1cc(C(C)C)c(C(=O)Nc2nnc(NCc3ccc(S(N)(=O)=O)cc3)s2)c(C(C)C)c1 [compound 35, N-(5-{[4-(aminosulfonyl)benzyl]amino}-1,3,4-thiadiazol-2-yl)-2,4,6-triisopropylbenzamide]	
37.9%	O=C(Nc1nnc(NCCC(c2ccccc2)c2ccccc2)s1)c1cc2ccccc2s1 [compound 277, N-{5-[(3,3-diphenylpropyl)amino]-1,3,4-thiadiazol-2-yl}-1-benzothiophene-2-carboxamide]	
68.5%	O=C(Nc1nnc(NC2CCCc3ccccc32)s1)c1c(Cl)cccc1Cl (stereo not drawn) [compound 76, 2,6-dichloro-N-[5-(1,2,3,4-tetrahydro-1-naphthalenylamino)-1,3,4-thiadiazol-2-yl]benzamide]	
20.3%	N#Cc1ccc(C(=O)Nc2nnc(NCCN3CCOCC3)s2)cc1 [compound 464, 4-cyano-N-{5-[(2-morpholinoethyl)amino]-1,3,4-thiadiazol-2-yl}benzamide]	
	O=C(Nc1nnc(NCC(c2ccccc2)c2ccccc2)s1)c1ccc(S(=O)(=O)F)cc1 [compound 111, 4-[({5-[(2,2-diphenylethyl)amino]-1,3,4-thiadiazol-2-yl}amino)carbonyl]benzenesulfonyl fluoride]	62.6%
23.3%	COc1ccccc1C(=O)Nc1nnc(NC2CCCc3ccccc32)s1 (stereo not drawn) [compound 428, 2-methoxy-N-[5-(1,2,3,4-tetrahydro-1-naphthalenylamino)-1,3,4-thiadiazol-2-yl]benzamide]	
54.9%	CCCCCCCCCCCNc1nnc(NC(=O)c2c(OCC)ccc3ccccc23)s1 [compound 145, 2-ethoxy-N-[5-(undecylamino)-1,3,4-thiadiazol-2-yl]-1-naphthamide]	
40.5%	CC(C)c1cc(C(C)C)c(C(=O)Nc2nnc(NC3CCCCCC3)s2)c(C(C)C)c1 [compound 250, N-[5-(cycloheptylamino)-1,3,4-thiadiazol-2-yl]-2,4,6-triisopropylbenzamide]	

inhibition at 25 µM	SMILES	% Inhib
60%	CCCCCCCCCCCNc1nnc(NC(=O)c2ccc(F)cc2F)s1 [compound 121, 2,4-difluoro-N-[5-(undecylamino)-1,3,4-thiadiazol-2-yl]benzamide]	
24.6%	O=C(Nc1nnc(NCCc2ccccc2)s1)c1ccc(I)cc1 [compound 415, 4-iodo-N-[5-(phenethylamino)-1,3,4-thiadiazol-2-yl]benzamide]	
56.4%	O=C(Nc1nnc(NCCCNC2CCCCC2)s1)c1cccc([N+](=O)[O-])c1 [compound 137, N-(5-{[3-(cyclohexylamino)propyl]amino}-1,3,4-thiadiazol-2-yl)-3-nitrobenzamide]	
25.2%	O=C(Nc1nnc(NC2CCc3ccccc32)s1)c1ccc([N+](=O)[O-])o1 (stereo not drawn) [compound 404, N-[5-(2,3-dihydro-1H-inden-1-ylamino)-1,3,4-thiadiazol-2-yl]-5-nitro-2-furamide]	
23.4%	O=C(Nc1nnc(NCCCN2CCCC2=O)s1)c1ccc(F)cc1F [compound 427, 2,4-difluoro-N-(5-{[3-(2-oxo-1-pyrrolidinyl)propyl]amino}-1,3,4-thiadiazol-2-yl)benzamide]	
47.1%	O=C(Nc1nnc(NCc2cccc3ccccc23)s1)c1cccc([N+](=O)[O-])c1 [compound 190, N-{5-[(1-naphthylmethyl)amino]-1,3,4-thiadiazol-2-yl}-3-nitrobenzamide]	
99.7%	O=C(Nc1nnc(NCCc2c[nH]c3ccccc23)s1)c1ccc2c(c1)C(=O)OC2=O [compound 10, N-(5-{[2-(1H-indol-3-yl)ethyl]amino}-1,3,4-thiadiazol-2-yl)-1,3-dioxo-1,3-dihydro-2-benzofuran-5-carboxamide]	
27.9%	CCCCCCCCCCCNc1nnc(NC(=O)c2ccc(Cl)c(Cl)c2)s1 [compound 375, 3,4-dichloro-N-[5-(undecylamino)-1,3,4-thiadiazol-2-yl]benzamide]	
59.5%	CCOc1ccc2ccccc2c1C(=O)Nc1nnc(NCc2ccc(OC)c(OC)c2)s1 [compound 122, N-{5-[(3,4-dimethoxybenzyl)amino]-1,3,4-thiadiazol-2-yl}-2-ethoxy-1-naphthamide]	
36.7%	O=C(Nc1nnc(NCCc2c[nH]c3ccccc23)s1)c1ccc(C(F)(F)F)cc1 [compound 284, N-(5-{[2-(1H-indol-3-yl)ethyl]amino}-1,3,4-thiadiazol-2-yl)-4-(trifluoromethyl)benzamide]	
34.9%	O=C(Nc1nnc(NC2CCCCCC2)s1)c1cc(F)cc(F)c1 [compound 300, N-[5-(cycloheptylamino)-1,3,4-thiadiazol-2-yl]-3,5-difluorobenzamide]	
75.8%	CCCCCCCC/C=C/CCCCCCCC(=O)Nc1nnc(NCCSc2ccccc2)s1 [compound 58, (E)-N-(5-{[2-(phenylsulfanyl)ethyl]amino}-1,3,4-thiadiazol-2-yl)-9-octadecenamide]	
	O=C(Nc1nnc(NCCCCc2ccccc2)s1)c1ccc(S(=O)(=O)F)cc1 [compound 245, 4-[({5-[(4-phenylbutyl)amino]-1,3,4-thiadiazol-2-yl}amino)carbonyl]benzenesulfonyl fluoride]	41.0%
30.3%	O=C(Nc1nnc(NCCc2c[nH]c3ccccc23)s1)c1ccc(Br)cc1 [compound 351, 4-bromo-N-(5-{[2-(1H-indol-3-yl)ethyl]amino}-1,3,4-thiadiazol-2-yl)benzamide]	
53.6%	O=C(/C=C/c1ccccc1Cl)Nc1nnc(NCC(c2ccccc2)c2ccccc2)s1 [compound 154, (E)-3-(2-chlorophenyl)-N-{5-[(2,2-diphenylethyl)amino]-1,3,4-thiadiazol-2-yl}-2-propenamide]	
38.4%	O=C(Nc1nnc(NCCc2c[nH]c3ccccc23)s1)c1cccc([N+](=O)[O-])c1 [compound 271, N-(5-{[2-(1H-indol-3-yl)ethyl]amino}-1,3,4-thiadiazol-2-yl)-3-nitrobenzamide]	
31.6%	CC(C)(C)OC(=O)CCNc1nnc(NC(=O)c2c(Cl)cccc2Cl)s1 [compound 338, tert-butyl 3-({5-[(2,6-dichlorobenzoyl)amino]-1,3,4-thiadiazol-2-yl}amino)propanoate]	
47.6%	O=C(/C=C/c1ccccc1Cl)Nc1nnc(NCCc2cccs2)s1 [compound 185, (E)-3-(2-chlorophenyl)-N-(5-{[2-(2-thienyl)ethyl]amino}-1,3,4-thiadiazol-2-yl)-2-propenamide]	
20.1%	CCSCCNc1nnc(NC(=O)c2cc3ccccc3s2)s1 [compound 466, N-(5-{[2-(ethylsulfanyl)ethyl]amino}-1,3,4-thiadiazol-2-yl)-1-benzothiophene-2-carboxamide]	
